Assay results from US20100331233A1, “CRYSTAL OF XPA AND ERCC1 COMPLEX AND USES THEREOF” (priority 2007, published 2010).
No end group written: not given here.

Assays:
[1] = system: NER activity in HeLa cell extracts; test: In vitro NER assay: excision of a 1,3-intrastrand cisplatin adduct from plasmid in HeLa cell extract with XPA peptide; assay type: biochemical
ERCC1-XPF = biological target: T1, ERCC1-XPF (Homo sapiens, UniProt P07992); test: Nuclease assay: incision of stem-loop DNA substrate by purified ERCC1-XPF; assay type: biochemical; conditions: 92 μM peptide
T1 sequence (P07992 1-297): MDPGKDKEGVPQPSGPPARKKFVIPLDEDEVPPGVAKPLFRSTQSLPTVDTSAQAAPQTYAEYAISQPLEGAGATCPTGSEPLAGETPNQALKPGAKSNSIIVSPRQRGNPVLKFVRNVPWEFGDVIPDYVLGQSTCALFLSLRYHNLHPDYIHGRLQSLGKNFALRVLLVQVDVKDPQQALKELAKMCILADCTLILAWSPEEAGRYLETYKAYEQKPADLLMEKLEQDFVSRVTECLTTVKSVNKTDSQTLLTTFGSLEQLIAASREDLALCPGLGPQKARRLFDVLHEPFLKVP
T1 sequence (Q92889 1-916 partner): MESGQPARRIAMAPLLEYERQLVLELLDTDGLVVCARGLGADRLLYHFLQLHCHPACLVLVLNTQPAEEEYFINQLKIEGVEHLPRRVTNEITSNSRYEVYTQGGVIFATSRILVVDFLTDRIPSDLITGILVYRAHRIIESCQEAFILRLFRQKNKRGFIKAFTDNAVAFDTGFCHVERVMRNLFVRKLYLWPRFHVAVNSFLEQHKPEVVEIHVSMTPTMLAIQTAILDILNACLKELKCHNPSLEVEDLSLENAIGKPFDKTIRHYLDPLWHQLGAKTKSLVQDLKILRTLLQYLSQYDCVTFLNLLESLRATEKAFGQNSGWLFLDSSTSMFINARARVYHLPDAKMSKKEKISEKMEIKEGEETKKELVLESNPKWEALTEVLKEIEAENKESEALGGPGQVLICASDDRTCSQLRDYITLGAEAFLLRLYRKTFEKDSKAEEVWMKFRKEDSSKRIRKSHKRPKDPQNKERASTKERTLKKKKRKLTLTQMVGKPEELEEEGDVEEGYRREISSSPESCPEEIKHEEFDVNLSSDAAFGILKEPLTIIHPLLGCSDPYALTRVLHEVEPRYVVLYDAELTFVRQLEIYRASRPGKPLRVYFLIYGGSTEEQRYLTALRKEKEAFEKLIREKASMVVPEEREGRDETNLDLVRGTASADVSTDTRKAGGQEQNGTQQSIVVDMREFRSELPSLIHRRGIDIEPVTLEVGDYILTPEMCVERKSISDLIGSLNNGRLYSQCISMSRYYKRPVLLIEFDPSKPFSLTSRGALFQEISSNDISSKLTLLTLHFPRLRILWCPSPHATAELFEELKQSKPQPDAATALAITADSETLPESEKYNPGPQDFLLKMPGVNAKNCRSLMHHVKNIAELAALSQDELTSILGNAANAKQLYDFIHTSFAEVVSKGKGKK
Protocol: Nuclease assay. A substrate consisting of a 12 base pair stem with a 22 nucleotide loop (5′-[…](T)22[…]; SEQ ID NO:7) was 5′ end labeled using a T4 polynucleotide kinase and [γ-^32P]-ATP. […] The final reaction volume was 15 μl.

ERCC192-214 = biological target: T2, ERCC192-214 (Homo sapiens, UniProt P07992); test: 15N HSQC NMR chemical shift perturbation of 15N-labeled ERCC1; assay type: binding; conditions: 15N HSQC spectrum of ERCC1-XPA complex; read-out: dissociation equilibrium constant implied by slow-exchange regime
T2 construct: an ERCC1 central domain fragment consisting of amino acids 92-214 preceded by an N-terminal hexahistidine tag; made in house; host or cells: E. coli BL21(DE3), M9 minimal media with 15N-labeled NH4Cl
T2 sequence (P07992 92-214): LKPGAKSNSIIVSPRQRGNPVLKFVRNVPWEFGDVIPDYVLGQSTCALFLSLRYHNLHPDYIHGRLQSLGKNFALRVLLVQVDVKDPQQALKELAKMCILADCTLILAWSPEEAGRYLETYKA
Protocol: FIG. 3 illustrates the binding of XPA67-80 in a shallow groove of ERCC1. (A) A comparison of the two dimensional HSQC spectra for ^15N-labeled ERCC192-214 in the presence and absence of an unlabeled XPA67-80 peptide. The ^15N HSQC spectra reveal significant chemical shift changes for some ERCC1 residues (labeled) in the absence or presence of unlabeled XPA67-80. (B) Combined average chemical shift perturbations are calculated as Δχave=[((Δχ1H)^2+(Δχ15N/5)^2)/2)]^1/2 for each backbone amide of ERCC1 and shown as a histogram.
NMR experiments and determination of the structure of XPA-ERCC1 complex. All NMR data were acquired in the NMR Buffer described above. […] Backbone assignments of the free ERCC192-214 and ERCC1-XPA67-80 complex were performed using a standard set of triple-resonance experiments: HNCA/HN(CO)CA, HN(CA)CB/HN(COCA)CB and HNCO/HN(CA)CO.
Identification of the ERCC1 binding site in complex with XPA. The binding site for XPA on the surface of ERCC1 (FIG. 2B) was identified using two dimensional HSQC experiments. […] The ^15N HSQC spectrum of the ERCC1-XPA complex is consistent with a slow-exchange regime, implying a dissociation equilibrium constant below 1 μM for the complex. The XPA binding site on the ERCC1 central domain was identified using the backbone assignments for […] alone and in complex with XPA (see below). […]

Sequence: KIIDTGGGFILEEE [XPA67-80]
- NER activity at 92 μM peptide ([1]; HeLa cell extract, 92 μM): completely abolishes NER activity
- effect on NER excision of the lesion-containing oligonucleotide ([1]; HeLa cell free extract, plasmid with 1,3-cisplatin intrastrand crosslink, peptide 46 nM to 92 μM): inhibits the in vitro NER reaction
- effect on intrinsic nuclease activity of ERCC1-XPF (ERCC1-XPF; 0.4 mM MnCl2): do not affect
- effect on intrinsic nuclease activity of ERCC1-XPF (ERCC1-XPF; 0.4 mM MnCl2, listed as XPA peptide): has no effect
- Kd (ERCC192-214): < 1000 nM
